According to ChEMBL document CHEMBL1201862, “PubChem BioAssay data set” (2004):
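48-hour exposure; five concentrations; linearly interpolated endpoints. GI50 = concentration required for 50% inhibition of growth.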 The source made the active and inactive calls. No stated cut-off is given here; in the data, active = GI50 up to about 1.1 µM and inactive = higher.

Legend:
Test in all cases: NCI anticancer screen, dose series, 48 h
CCRF-CEM = test system: CCRF-CEM
HCC 2998 = test system: HCC 2998
HCT-15 = test system: HCT-15
KM12 = test system: KM12
LOX IMVI = test system: LOX IMVI
M14 = test system: M14
MOLT-4 = test system: MOLT-4
NCI-H226 = test system: NCI-H226
OVCAR-3 = test system: OVCAR-3
SF-295 = test system: SF-295
SK-MEL-5 = test system: SK-MEL-5
SK-OV-3 = test system: SK-OV-3
SNB-75 = test system: SNB-75
TK-10 = test system: TK-10
UACC-62 = test system: UACC-62
RPMI-8226 = test system: RPMI-8226

SMILES	GI50 (CCRF-CEM)	GI50 (HCC 2998)	GI50 (HCT-15)	GI50 (KM12)	GI50 (LOX IMVI)	GI50 (M14)	GI50 (MOLT-4)	GI50 (NCI-H226)	GI50 (OVCAR-3)	GI50 (SF-295)	GI50 (SK-MEL-5)	GI50 (SK-OV-3)	GI50 (SNB-75)	GI50 (TK-10)	GI50 (UACC-62)	GI50 (RPMI-8226)
Cc1cccc2cc3cccc(C(=O)NCCN(C)C)c3nc12	0.0575 µM (active)	0.181 µM (active)	0.0993 µM	0.397 µM (active)	0.083 µM (active)	0.433 µM (active)	< 0.01 µM (active)	0.0638 µM (active)	0.366 µM (active)	0.131 µM (active)	0.173 µM (active)	0.138 µM (active)	0.235 µM (active)	0.317 µM (active)	0.129 µM (active)	
COC(=O)c1cccc2c3ccccc3c3ccccc3c12	27.5 µM (inactive)	43.1 µM (inactive)	35.2 µM	39.5 µM (inactive)	29.4 µM (inactive)	28.5 µM (inactive)	24.5 µM (inactive)	> 100 µM (inactive)	21.4 µM (inactive)	26.6 µM (inactive)	30.1 µM (inactive)	37.2 µM (inactive)	26.9 µM (inactive)	46.5 µM (inactive)	24.3 µM (inactive)	
CCOC(=O)Cc1c(Cc2[nH]c(C(=O)OCc3ccccc3)c(CC(=O)OCC)c2CC(=O)OCC)[nH]c(C(=O)OCc2ccccc2)c1CC(=O)OCC	> 100 µM (inactive)		> 100 µM			> 100 µM (inactive)	> 100 µM (inactive)		> 100 µM (inactive)	> 100 µM (inactive)	> 100 µM (inactive)	> 100 µM (inactive)	> 100 µM (inactive)		> 100 µM (inactive)	> 100 µM (inactive)
NC(=O)NCc1c(C(N)=O)ncn1Cc1ccccc1	> 100 µM (inactive)	> 100 µM (inactive)	> 100 µM		> 100 µM (inactive)	> 100 µM (inactive)	> 100 µM (inactive)		> 100 µM (inactive)	> 100 µM (inactive)	> 100 µM (inactive)	> 100 µM (inactive)	> 100 µM (inactive)	> 100 µM (inactive)	> 100 µM (inactive)	> 100 µM (inactive)
S=C1NCCN1	> 100 µM (inactive)		> 100 µM	> 100 µM (inactive)	> 100 µM (inactive)	> 100 µM (inactive)	> 100 µM (inactive)	> 100 µM (inactive)	> 100 µM (inactive)	> 100 µM (inactive)	> 100 µM (inactive)	> 100 µM (inactive)	> 100 µM (inactive)	> 100 µM (inactive)	> 100 µM (inactive)	> 100 µM (inactive)
COC(=O)C1=C(C)N(NC(=O)c2ccccc2)C(C)(O)C12CCOC2=O (stereo not drawn)	> 100 µM (inactive)	> 100 µM (inactive)	> 100 µM	> 100 µM (inactive)	> 100 µM (inactive)	> 100 µM (inactive)	> 100 µM (inactive)	> 100 µM (inactive)	> 100 µM (inactive)	> 100 µM (inactive)		> 100 µM (inactive)		> 100 µM (inactive)	> 100 µM (inactive)	> 100 µM (inactive)
COc1ccc(C(=O)C(c2ccc(OC)cc2)C2(O)C(=O)Nc3ccccc32)cc1 (stereo not drawn)	> 100 µM (inactive)		> 100 µM	> 100 µM (inactive)	72.9 µM (inactive)	> 100 µM (inactive)	> 100 µM (inactive)	> 100 µM (inactive)	> 100 µM (inactive)	> 100 µM (inactive)		> 100 µM (inactive)	67.5 µM (inactive)	> 100 µM (inactive)	> 100 µM (inactive)	> 100 µM (inactive)
C=C1CC[C@@H]2C(C)(C)C(O)CCC2(C)C1COc1ccc2ccc(=O)oc2c1 (stereo partly drawn)	13.4 µM (inactive)	19.9 µM (inactive)	14.1 µM	15.6 µM (inactive)	16.8 µM (inactive)	18.6 µM (inactive)	14.7 µM (inactive)	18.8 µM (inactive)	17.9 µM (inactive)	16.2 µM (inactive)		23.4 µM (inactive)	18 µM (inactive)	19.8 µM (inactive)	15.8 µM (inactive)	12.4 µM (inactive)
Cc1cccc(C(C)(C)C)c1NC(=O)CCl	> 100 µM (inactive)	> 100 µM (inactive)		> 100 µM (inactive)	> 100 µM (inactive)	> 100 µM (inactive)	> 100 µM (inactive)	> 100 µM (inactive)	> 100 µM (inactive)	> 100 µM (inactive)	> 100 µM (inactive)	> 100 µM (inactive)	> 100 µM (inactive)	> 100 µM (inactive)	> 100 µM (inactive)	
COC(=O)CC1NC(=O)C1C1(C)OCCO1 (stereo not drawn)		> 100 µM (inactive)	> 100 µM		> 100 µM (inactive)	> 100 µM (inactive)		> 100 µM (inactive)	> 100 µM (inactive)	> 100 µM (inactive)	> 100 µM (inactive)		28 µM (inactive)	> 100 µM (inactive)	> 100 µM (inactive)	> 100 µM (inactive)
CSc1cc(C(C)(C)C)ccc1C(O)c1ccc(C(C)(C)C)cc1SC	10.9 µM (inactive)	18.2 µM (inactive)	7.83 µM	11.5 µM (inactive)	12 µM (inactive)	12.2 µM (inactive)	3.35 µM (inactive)	12.9 µM (inactive)	12.4 µM (inactive)	10.5 µM (inactive)	14.4 µM (inactive)	17.5 µM (inactive)	12.8 µM (inactive)	15.2 µM (inactive)	15.3 µM (inactive)	
CCc1cccc(C)c1NC(=O)C(=O)CC(=O)c1ccc(Cl)s1	> 100 µM (inactive)	> 100 µM (inactive)	> 100 µM	> 100 µM (inactive)	> 100 µM (inactive)	> 100 µM (inactive)	> 100 µM (inactive)	> 100 µM (inactive)		> 100 µM (inactive)		> 100 µM (inactive)	> 100 µM (inactive)	> 100 µM (inactive)	> 100 µM (inactive)	
CC(=O)Nc1ccc(/C=c2\sc3nnc(/C=C/c4ccccc4)n3c2=O)cc1	> 50 µM (inactive)	> 50 µM (inactive)		> 50 µM (inactive)	> 50 µM (inactive)	> 50 µM (inactive)	> 50 µM (inactive)	> 50 µM (inactive)	> 50 µM (inactive)	> 50 µM (inactive)	> 50 µM (inactive)	> 50 µM (inactive)	> 50 µM (inactive)	> 50 µM (inactive)	> 50 µM (inactive)	> 50 µM (inactive)
CC(C)c1cccc(C(C)C)c1NC(=O)C(=O)C(C(=O)c1ccc2ccccc2c1)C1OC(=O)c2ccccc21 (stereo not drawn)	> 100 µM (inactive)	> 100 µM (inactive)	> 100 µM	> 100 µM (inactive)	> 100 µM (inactive)	> 100 µM (inactive)	> 100 µM (inactive)	19.7 µM (inactive)	> 100 µM (inactive)	> 100 µM (inactive)	> 100 µM (inactive)	> 100 µM (inactive)			> 100 µM (inactive)	> 100 µM (inactive)
COC1CCC2C(=O)CCCC2O1 (stereo not drawn)		> 100 µM (inactive)	> 100 µM	> 100 µM (inactive)		> 100 µM (inactive)	> 100 µM (inactive)	> 100 µM (inactive)	> 100 µM (inactive)	> 100 µM (inactive)	> 100 µM (inactive)	> 100 µM (inactive)	> 100 µM (inactive)	> 100 µM (inactive)	> 100 µM (inactive)	> 100 µM (inactive)
CSC(=S)N(C)NC(=O)c1cccc(C(=O)NN(C)C(=S)SC)n1	2.96 µM (inactive)		25.9 µM	2.89 µM (inactive)	31.4 µM (inactive)	14.6 µM (inactive)	4.33 µM (inactive)	25.9 µM (inactive)		3.44 µM (inactive)	15.7 µM (inactive)		34.3 µM (inactive)		14.3 µM (inactive)	10.3 µM (inactive)
Cc1ccc(/C=C/C(=O)C(C)C)cc1	22.9 µM (inactive)	> 100 µM (inactive)		48.8 µM (inactive)		58.7 µM (inactive)	30.2 µM (inactive)		32.1 µM (inactive)	38.3 µM (inactive)	50.9 µM (inactive)	74.3 µM (inactive)	35.2 µM (inactive)	> 100 µM (inactive)	37.2 µM (inactive)	27.9 µM (inactive)
COC(=O)CC1CC2(C(=O)OC)c3[nH]c4ccccc4c3CCN2C1=O (stereo not drawn)	> 100 µM (inactive)	> 100 µM (inactive)	> 100 µM	> 100 µM (inactive)	> 100 µM (inactive)	> 100 µM (inactive)	> 100 µM (inactive)	> 100 µM (inactive)	> 100 µM (inactive)	> 100 µM (inactive)	> 100 µM (inactive)	> 100 µM (inactive)	> 100 µM (inactive)	> 100 µM (inactive)	> 100 µM (inactive)	
O=C(O)C1=C(O)C(C(=O)O)C23CCCCCCCCCCC12C(C(=O)O)C(O)=C3C(=O)O (stereo not drawn)	> 100 µM (inactive)	> 100 µM (inactive)	> 100 µM	> 100 µM (inactive)		> 100 µM (inactive)	> 100 µM (inactive)	> 100 µM (inactive)	> 100 µM (inactive)	> 100 µM (inactive)	> 100 µM (inactive)	> 100 µM (inactive)		> 100 µM (inactive)		> 100 µM (inactive)
CN(C)CCNc1nc(-c2cccs2)cc(-c2cccs2)n1	4.41 µM (inactive)	12.4 µM (inactive)	15.9 µM	12.1 µM (inactive)	10.5 µM (inactive)	12.4 µM (inactive)	3 µM (inactive)	15.9 µM (inactive)	22.6 µM (inactive)	14.3 µM (inactive)	15.3 µM (inactive)	> 10 µM (inactive)	23.8 µM (inactive)	14.9 µM (inactive)	19.1 µM (inactive)	
